{"source": "patent US20180360898A1", "about": "“USE OF CRANBERRY DERIVED PHENOLIC COMPOUNDS AS ANTIBIOTIC SYNERGIZING AGENT AGAINST PATHOGENIC BACTERIA” (THE ROYAL INSTITUTION FOR THE ADVANCEMENT OF …, priority 2015, published 2018)", "key": {"E. coli CFT073": {"test_system": "E. coli CFT073", "assay": "Minimum Inhibitory Concentration (MIC)", "type": "cell-based, Escherichia coli", "details": "alone, MHB-II broth", "experimental": "(§1) Pure stock cultures were maintained at −80° C. in 30% (v/v) frozen glycerol solution. Starter cultures were prepared by streaking frozen cultures onto LB agar (LB broth: tryptone 10 g/L, yeast extract 5 g/L and NaCl 5 g/L, supplemented with 1.5 w/v % agar (Fisher Scientific, Canada)). After overnight incubation at 37° C., a single colony was inoculated into 10 mL of LB broth and the culture was incubated at 37° C. on an orbital shaker at 150 rpm for time lengths specific to each experiment. LB broth was used for bacterial culture in all experiments unless otherwise specified.\n(§2) Minimum Inhibitory Concentration (MIC) was determined by preparing two-fold serial dilutions of each cPACs fraction and antibiotic in Mueller Hinton broth adjusted with Ca^2+ and Mg^2+ (MHB-II, Oxoid, Fisher Scientific, Canada). […] Bacterial growth was assessed by (i) monitoring the optical density of the cell suspension in each well at 600 nm (OD600 nm), and (ii) the resazurin microtitre plate assay. In the resazurin microtitre plate assay, each well of a microtitre plate was supplemented with 20 μM resazurin, incubated in dark for 20 min at room temperature, followed by fluorescence measurements at ex/em 570/590 nm using a TECAN Infinite M200 Pro microplate reader (Tecan Group Ltd., Switzerland). […]"}, "P. aeruginosa PAO1": {"test_system": "P. aeruginosa PAO1", "assay": "Minimum Inhibitory Concentration (MIC)", "type": "cell-based, Pseudomonas aeruginosa", "details": "alone, MHB-II broth", "experimental": "as §1, §2"}}, "data": [{"substance": "gentamicin", "values": [{"measurement": "MIC", "setting": "E. coli CFT073", "result": 2, "unit": "µg/mL"}, {"measurement": "MIC", "setting": "P. aeruginosa PAO1", "result": 2, "unit": "µg/mL"}]}]}
